# Reference: article PMC11822212, “High-throughput screening identifies Aurora kinase B as a critical therapeutic target for Merkel cell carcinoma” (Nature Communications, 2025)
# Like-named read-outs stand apart in the source and are kept apart here.
# Columns and labels:
# [1] = tested on: six MCC cell lines and four control cell lines; experiment: qHTS cell viability, all 10 cell lines screened; type: cell-based
# HACAT cells = experiment: qHTS cell viability (CellTiter-Glo, 72 h; primary screen), control cell line; type: cell-based, human
# MCC26 cells (VN-MCC) = experiment: qHTS cell viability (CellTiter-Glo, 72 h; primary and follow-up small molecule screen); type: cell-based, human
# CRL-7250 cells = experiment: qHTS cell viability (CellTiter-Glo, 72 h; primary screen), control cell line; type: cell-based
# MCC13 cells (VN-MCC) = experiment: qHTS cell viability (CellTiter-Glo, 72 h; primary and follow-up small molecule screen); type: cell-based, human
# MKL-2 cells (VP-MCC) = experiment: as above; type: cell-based, human
# [2] = tested on: VN-MCC cell lines (MCC13, MCC26, UISO); experiment: qHTS cell viability, VN-MCC cell lines as a group (mean AUC, VN.MCC.avg); type: cell-based, human
# NIH-3T3 cells = experiment: qHTS cell viability (CellTiter-Glo, 72 h; primary screen), control cell line; type: cell-based, mouse
# [3] = tested on: VP-MCC cell lines (WAGA, MKL-1, MKL-2); experiment: qHTS cell viability, VP-MCC cell lines as a group (mean AUC, VP.MCC.avg); type: cell-based, human
# HEK293T cells = experiment: qHTS cell viability (CellTiter-Glo, 72 h; primary screen), control cell line; type: cell-based, human
# UISO cells (VN-MCC) = experiment: qHTS cell viability (CellTiter-Glo, 72 h; primary and follow-up small molecule screen); type: cell-based, human
# [4] = tested on: MCC cell lines (WAGA, MKL-1, MKL-2, MCC13, MCC26, UISO); experiment: qHTS cell viability, all six MCC cell lines as a group (mean AUC, MCC.avg); type: cell-based, human
# [5] = tested on: control cell lines (HACAT, HEK293T, CRL-7250, NIH-3T3); experiment: qHTS cell viability, control cell lines as a group (mean AUC, Control.avg); type: cell-based
# MKL-1 cells (VP-MCC) = experiment: qHTS cell viability (CellTiter-Glo, 72 h; primary and follow-up small molecule screen); type: cell-based, human
# WAGA cells (VP-MCC) = experiment: as above; type: cell-based, human
smiles,measurement,setting,value
CN(C)C(=O)Nc1ccc(Cl)c(Cl)c1 [Diuron],Control-MCC,[1],150.329
same,HACAT_AUC,HACAT cells,457.965
same,Area under the dose-response curve (AUC) MCC26 Replicate 1,MCC26 cells (VN-MCC),419.4
same,Area under the dose-response curve (AUC) MCC26 Replicate 2,MCC26 cells (VN-MCC),420.5
same,Area under the dose-response curve (AUC) MCC26 Replicate 3,MCC26 cells (VN-MCC),426.9
same,MCC26_AUC,MCC26 cells (VN-MCC),462.009
same,CRL7250_AUC,CRL-7250 cells,483.042
same,Area under the dose-response curve (AUC) MCC13 Replicate 1,MCC13 cells (VN-MCC),429.4
same,Area under the dose-response curve (AUC) MCC13 Replicate 2,MCC13 cells (VN-MCC),471.6
same,Area under the dose-response curve (AUC) MCC13 Replicate 3,MCC13 cells (VN-MCC),443.0
same,MCC13_AUC,MCC13 cells (VN-MCC),486.707
same,Area under the dose-response curve (AUC) MKL-2 Replicate 1,MKL-2 cells (VP-MCC),465.6
same,Area under the dose-response curve (AUC) MKL-2 Replicate 2,MKL-2 cells (VP-MCC),447.9
same,Area under the dose-response curve (AUC) MKL-2 Replicate 3,MKL-2 cells (VP-MCC),414.0
same,MKL2_AUC,MKL-2 cells (VP-MCC),290.674
same,Control-VN-MCC,[2],17.4511
same,VN-MCC_Avg_AUC,[2],460.449
same,NIH3T3_AUC,NIH-3T3 cells,473.572
same,Control-VP-MCC,[3],283.207
same,VP-MCC_Avg_AUC,[3],194.692
same,HEK293T_AUC,HEK293T cells,497.019
same,Area under the dose-response curve (AUC) UISO Replicate 1,UISO cells (VN-MCC),424.2
same,Area under the dose-response curve (AUC) UISO Replicate 2,UISO cells (VN-MCC),442.5
same,Area under the dose-response curve (AUC) UISO Replicate 3,UISO cells (VN-MCC),396.8
same,UISO_AUC,UISO cells (VN-MCC),432.63
same,MCC_Avg_AUC,[4],327.57
same,Control_Avg_AUC,[5],477.9
same,Area under the dose-response curve (AUC) MKL-1 Replicate 1,MKL-1 cells (VP-MCC),459.9
same,Area under the dose-response curve (AUC) MKL-1 Replicate 2,MKL-1 cells (VP-MCC),477.0
same,Area under the dose-response curve (AUC) MKL-1 Replicate 3,MKL-1 cells (VP-MCC),426.1
same,MKL1_AUC,MKL-1 cells (VP-MCC),165.013
same,Area under the dose-response curve (AUC) WAGA Replicate 1,WAGA cells (VP-MCC),487.4
same,Area under the dose-response curve (AUC) WAGA Replicate 2,WAGA cells (VP-MCC),506.5
same,Area under the dose-response curve (AUC) WAGA Replicate 3,WAGA cells (VP-MCC),435.9
same,WAGA_AUC,WAGA cells (VP-MCC),128.39
CC1=C(C)C(=O)C(CCCCC#CCCCC#CCO)=C(C)C1=O [Docebenone],Control-MCC,"[1]; NPC library, therapeutic window: Control avg AUC minus MCC avg AUC",44.0275
same,HACAT_AUC,"HACAT cells; NPC library, qHTS dose-response AUC, HACAT control",486.31
same,HACAT_AUC,"HACAT cells; area under the dose-response curve, HACAT control cells, AUC<450 = reduced viability",486.31
same,MCC26_AUC,"MCC26 cells (VN-MCC); NPC library, qHTS dose-response AUC, MCC26",429.759
same,MCC26_AUC,"MCC26 cells (VN-MCC); area under the dose-response curve, MCC26 cells, AUC<450 = reduced viability",429.759
same,CRL7250_AUC,"CRL-7250 cells; NPC library, qHTS dose-response AUC, CRL7250 control",490.119
same,CRL7250_AUC,"CRL-7250 cells; area under the dose-response curve, CRL7250 control cells, AUC<450 = reduced viability",490.119
same,MCC13_AUC,"MCC13 cells (VN-MCC); NPC library, qHTS dose-response AUC, MCC13",444.208
same,MCC13_AUC,"MCC13 cells (VN-MCC); area under the dose-response curve, MCC13 cells, AUC<450 = reduced viability",444.208
same,MKL2_AUC,"MKL-2 cells (VP-MCC); NPC library, qHTS dose-response AUC, MKL2",406.862
same,MKL2_AUC,"MKL-2 cells (VP-MCC); area under the dose-response curve, MKL-2 cells, AUC<450 = reduced viability",406.862
same,VN-MCC_Avg_AUC,"[2]; NPC library, mean AUC of VN-MCC cell lines",435.96
same,Control-VN-MCC,"[2]; NPC library, therapeutic window: Control avg AUC minus VN-MCC avg AUC",34.5201
same,NIH3T3_AUC,"NIH-3T3 cells; NPC library, qHTS dose-response AUC, NIH3T3 control",455.144
same,NIH3T3_AUC,"NIH-3T3 cells; area under the dose-response curve, NIH3T3 control cells, AUC<450 = reduced viability",455.144
same,VP-MCC_Avg_AUC,"[3]; NPC library, mean AUC of VP-MCC cell lines",416.945
same,Control-VP-MCC,"[3]; NPC library, therapeutic window: Control avg AUC minus VP-MCC avg AUC",53.5349
same,HEK293T_AUC,"HEK293T cells; NPC library, qHTS dose-response AUC, HEK293T control",450.348
same,HEK293T_AUC,"HEK293T cells; area under the dose-response curve, HEK293T control cells, AUC<450 = reduced viability",450.348
same,UISO_AUC,"UISO cells (VN-MCC); NPC library, qHTS dose-response AUC, UISO",433.913
same,UISO_AUC,"UISO cells (VN-MCC); area under the dose-response curve, UISO cells, AUC<450 = reduced viability",433.913
same,MCC_Avg_AUC,"[4]; NPC library, mean AUC of six MCC cell lines",426.453
same,Control_Avg_AUC,"[5]; NPC library, mean AUC of control cell lines",470.48
same,MKL1_AUC,"MKL-1 cells (VP-MCC); NPC library, qHTS dose-response AUC, MKL1",419.228
same,MKL1_AUC,MKL-1 cells (VP-MCC); {},419.228
same,WAGA_AUC,"WAGA cells (VP-MCC); NPC library, qHTS dose-response AUC, WAGA",424.745
same,WAGA_AUC,"WAGA cells (VP-MCC); area under the dose-response curve, WAGA cells, AUC<450 = reduced viability",424.745
CCCCCCCCCCCC[N+](C)(C)CCOc1ccccc1 [Domiphen bromide],Control-MCC,[1],42.3914
same,HACAT_AUC,HACAT cells,409.601
same,MCC26_AUC,MCC26 cells (VN-MCC),403.074
same,CRL7250_AUC,CRL-7250 cells,449.796
same,MCC13_AUC,MCC13 cells (VN-MCC),479.965
same,MKL2_AUC,MKL-2 cells (VP-MCC),321.555
same,Control-VN-MCC,[2],9.236
same,VN-MCC_Avg_AUC,[2],417.789
same,NIH3T3_AUC,NIH-3T3 cells,435.478
same,Control-VP-MCC,[3],75.5464
same,VP-MCC_Avg_AUC,[3],351.479
same,HEK293T_AUC,HEK293T cells,413.225
same,UISO_AUC,UISO cells (VN-MCC),370.326
same,MCC_Avg_AUC,[4],384.634
same,Control_Avg_AUC,[5],427.025
same,MKL1_AUC,MKL-1 cells (VP-MCC),361.63
same,WAGA_AUC,WAGA cells (VP-MCC),371.251
